Measurements from patent US7910622B2, “Modulation of bacterial quorum sensing with synthetic ligands” (Wisconsin Alumni Research Foundation, priority 2007, dated 2011).
Entries after “also recorded” stand apart in the source; their conditions may differ. Read-outs that look alike come from different tables or passages of the source.

Tests used:
LasR = target: T1, LasR (Pseudomonas aeruginosa, UniProt P25084); test: cell-based; assay type: cell-based; details: for inhibition at 5 µM: read-out: E. coli-LasR Inhibition [%], 5 μM synthetic ligand against 7.5 nM OdDHL; for inhibition at 5 µM / E. coli-LasR Inhibition [%]: E. coli DH5α (pJN105L pSC11), normalized to OdDHL; for E. coli-LasR Inhibition [%]: 5 μM synthetic ligand against 7.5 nM OdDHL
T1 construct: expressed in transfected cells; host or cells: E. coli DH5α (pJN105L pSC11), arabinose-induced
T1 sequence (P25084 whole entry): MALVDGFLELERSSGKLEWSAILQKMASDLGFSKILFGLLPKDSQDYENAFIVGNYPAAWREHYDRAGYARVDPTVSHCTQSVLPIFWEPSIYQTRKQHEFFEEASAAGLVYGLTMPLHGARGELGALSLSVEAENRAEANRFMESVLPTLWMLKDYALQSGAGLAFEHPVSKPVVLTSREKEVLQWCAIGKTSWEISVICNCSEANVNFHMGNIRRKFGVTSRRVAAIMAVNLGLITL
Procedure, shortened: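 E. coli DH5α carrying pJN105L/pSC11 grown to OD600 0.3, LasR expression induced with arabinose (4 mg/mL), then incubated with AHLs at 37 °C to OD600 0.45. LasR activity read by β-galactosidase reporter assay; IC50/EC50 from sigmoidal dose-response fits.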

elastase B production = test: microbe, parasite or virus in culture; assay type: cell-based, Pseudomonas aeruginosa; details: for inhibition at 200 µM: Pseudomonas aeruginosa, PAO1, read-out: elastase B production inhibition; for elastase B production inhibition: Example 2, concentration not stated (20 or 200 tested)
Protocol: Elastase B production assay in P. aeruginosa. Elastase B activity in P. aeruginosa was measured according to a previously reported method, with the following modifications. P. aeruginosa PAO1 was grown overnight in LB media at 37° C., after which it was diluted to an OD600=0.1. Portions (2 mL) of this culture was added to test tubes containing synthetic compounds to give final concentrations of 20 μM or 200 μM and incubated for 12-14 h at 37° C. with 200 rpm shaking. The OD600 was measured for each tube, after which the contents of the tubes were filtered through a […] Whatman filter to remove all cellular matter. A 100 μL-aliquot of the supernatant was added to 900 μL of an Elastin Congo Red Solution (5 mg of Elastin Congo red substrate per 1 mL of 100 mM Tris-HCl, 1 mM CaCl2 (pH 7.2)) and incubated for 12 h at 37° C. with 250 rpm shaking. The contents of these tubes were then filtered in order to remove unreacted Elastin Congo red substrate. Elastase B activity was then calculated (normalized) by dividing the absorbance of the cleaved Congo red (OD492) by the cell density (OD600 of the cells before first filtration).
Elastase B production assay in P. aeruginosa. Elastase B activity in P. aeruginosa was measured according to a previously reported method, with the following modifications. P. aeruginosa PAO1 was grown overnight at 37° C. and then diluted 1:10 with fresh LB medium. Portions (2 mL) of this culture were added to test tubes containing synthetic compounds to give final compound concentrations of 20 μM or 200 μM. The tubes were incubated for 12-14 h at 37° C. The OD600 was measured for each tube, after which the contents of the tubes were filtered through a 0.2 μm Whatman filter to remove all cellular matter. A 100 μL aliquot of the supernatant was added to 900 μL of an elastin-Congo red solution (5 mg of elastin-Congo red substrate per 1 mL of buffer (100 mM Tris-HCl, 1 mM CaCl2, pH 7.2)) and incubated for 12 h at 37° C. with 250 rpm shaking. The contents of these tubes were then filtered in order to remove unreacted elastin-Congo red substrate, and the supernatant containing cleaved Congo red was isolated. A 200 μL aliquot of the supernatant was added to a 96-well multititer plate, and the OD492 was measured. Elastase B activity was calculated by dividing the absorbance of the cleaved Congo red solution (OD492) by the cell density (OD600 of the cells before first filtration).

[1] = determined against 7.5 nM OdDHL, read-out: LasR IC50

| Compound | IC50 (LasR; [1]) [µM] | inhibition at 5 µM (LasR) [%] | inhibition at 200 µM (elastase B production) [%] | elastase B production inhibition (elastase B production; P. aeruginosa PAO1) | E. coli-LasR Inhibition [%] (LasR) | other results |
| --- | --- | --- | --- | --- | --- | --- |
| 3-nitro PHL [B17] | 0.61 |  |  |  |  | LasR: concentration at which the compound elicits its maximal inhibition (value in parentheses) (LasR; against 7.5 nM OdDHL, dose response curve did not reach 100% inhibition): 2.0 µM; activation of elastase B production at high concentration (elastase B production; P. aeruginosa PAO1, 10-fold higher concentration (200 vs 20)): activate elastase B production; also recorded: capable of both inhibiting and activating elastase B production |
| O=C(Cc1ccc(Br)cc1)N[C@H]1CCOC1=O [compound 8, N-(4-bromo-phenylacetanoyl)-L-homoserine lactone, reference compound] |  | ~25 | 77 |  |  | IC50 (LasR; read-out: LasR IC50, determined against 7.5 nM OdDHL): 3.89 µM |
| O=C(Cc1ccc(-c2ccccc2)cc1)NC1CCOC1=O (stereo not shown) [B21, 4-phenyl PHL] |  | 20 |  | poorly antagonized elastase B production |  |  |
| O=C(Cc1ccc(Br)cc1)N[C@H]1CCOC1=O [A17, 4-bromo-phenylacetanoyl HL, reference compound] |  |  |  | ca. 76% | 28 | IC50 (LasR): 3.89 µM |
| O=C(CCCc1c[nH]c2ccccc12)N[C@H]1CCOC1=O [A18, indole AHL, reference compound] | 8.38 |  |  | ~67% | 36 |  |
| O=C(Cc1ccc(-c2ccccc2)cc1)N[C@H]1CCOC1=O [C18, 4-phenyl PHL] |  | 20 | 4 |  |  |  |
